Results taken from US9133224B2, “Macrocyclic kinase inhibitors” (OSI Pharmaceuticals, LLC, priority 2010, dated 2015).

Conditions: from CCOP(=O)(O)Cc1ccc(Nc2ncc(C(F)(F)F)c(Nc3ccc(-c4cnn(CCCO)c4)cc3C(=O)N(CC)CC)n2)c(OC)c1; ester bond; 22-membered ring; PyBOP/DIEA; DCE/DMF; 1.03 mM; 25.0 °C

## CCO[P@]1(=O)Cc2ccc(c(OC)c2)Nc2ncc(C(F)(F)F)c(n2)Nc2ccc(cc2C(=O)N(CC)CC)-c2cnn(c2)CCCO1 (mixture of isomers)
  ring closure, isolated yield: 43%
